Test results from patent US5525731A, “Camptothecin analogues and methods of preparation thereof” (priority 1994, dated 1996).
Like-named read-outs stand apart in the source and are kept apart here.

Key:
[1] = test system: HL-60 cells (human promyelocytic leukemia); experiment: Cytotoxicity, XTT assay, HL-60 cell growth, 72 hr exposure; type: cell-based
Procedure: (§1) The synthesized compounds were evaluated for their cytotoxic effects on HL-60 (human promyelocytic leukemia) and 833K cells. The assay was conducted in 96-well microplates. The compounds were serially diluted in 4 to 6 steps with dimethylsulfoxide and added to cell incubation medium (RPMI 1640 containing 10% fetal. […]) at the final concentration of 1.0% dimethylsulfoxide in the medium. The cytotoxicity of the compounds were determined by the XTT-microculture tetrazolium assay: 2',3'-bis(2-methoxy-4-nitro-5-sulfophenyl)-3-[(phenylamino)carbonyl]-2H-tetrazolium hydroxide (XTT) was prepared at 1 mg/mL in prewarmed (37° C.) medium without serum. Phenazine methosulfate (PMS) and fresh XTT were mixed together to obtain 0.075 mM PMS-XTT solution (25 mL of the stock with 5 mg PMS added per 5 mL of 1 mg/mL XTT). Fifty microliters of this mixture were added to each well of the cell culture after 72 hours exposure to the testing compound. After incubation at 37° C. for 6 hours, the absorbance was determined at 450 nm and 630 nm with a microplate reader (EL 340, Bio-Tek Instruments, Inc., Winooski, Vt.). THe median-effect inhibitory concentration (IC50) was determined from a medium-effect plot using computer software for the purpose.
(§2) The results of the assay of cytotoxicity towards HL-60 and 833K cells of several analogues of camptothecin prepared in accord with the invention are illustrated in the accompanying Tables I and II, along with comparison data for native camptothecin. The data shown indicate that the camptothecin analogues prepared by the new methods provided by the invention have significant cytotoxic activity against cancer cells. […]

833K cells = experiment: Cytotoxicity, XTT assay, 833K cell growth, 72 hr exposure; type: cell-based; details: for IC50: read-out: Inhibitory Concentrations IC50; for IC70: read-out: Inhibitory Concentrations IC70; for IC95: read-out: Inhibitory Concentrations IC95
Procedure: as §1, §2

topoisomerase-I = experiment: Inhibition of topoisomerase-I activity (in words); type: biochemical
[2] = Reactivity with thiophenol in dichloromethane
Description: (For a related example of thiophenol addition to α-methylene-γ-lactones, see: Marshall, J. A., et al., J. Org. Chem., 47, 699 (1982).) NMR analysis of the crude reaction mixture indicated formation of the expected adducts 58 and 59.

844K cells = experiment: Cytotoxicity, XTT assay, 844K cells (so in the source); type: cell-based; details: Table II, read-out: Inhibitory Concentrations IC50
Procedure: as §1

[3] = Homo sapiens, HL-60, 72 h, read-out: Inhibitory Concentrations IC50, Table I, HL-60 (head HL-6), 72 hr, XTT
[4] = Homo sapiens, HL-60, 72 h, read-out: Inhibitory Concentrations IC50, Table II, HL-60, 72 hr, XTT
[5] = Table I, HL-60 (head HL-6), 72 hr, XTT
[6] = Table I, HL-60 (head HL-6), 72 hr, XTT, read-out: Inhibitory Concentrations IC50
[7] = Table II, HL-60, 72 hr, XTT, read-out: Inhibitory Concentrations IC50
[8] = Table II, HL-60, 72 hr, XTT, read-out: Inhibitory Concentrations IC70
[9] = Table II, HL-60, 72 hr, XTT, read-out: Inhibitory Concentrations IC95
[10] = Homo sapiens, Table I, 72 hr, XTT
[11] = Homo sapiens, HL-60, 72 h, Table I, HL-60 (head HL-6), 72 hr, XTT, read-out: Inhibitory Concentrations IC50
[12] = Homo sapiens, HL-60, 72 h, Table I, HL-60 (head HL-6), 72 hr, XTT, read-out: Inhibitory Concentrations IC70
[13] = Homo sapiens, HL-60, 72 h, Table I, HL-60 (head HL-6), 72 hr, XTT, read-out: Inhibitory Concentrations IC95
[14] = Homo sapiens, HL-60, 72 h, Table II, HL-60, 72 hr, XTT, read-out: Inhibitory Concentrations IC50
[15] = Homo sapiens, HL-60, 72 h, Table II, HL-60, 72 hr, XTT, read-out: Inhibitory Concentrations IC70
[16] = Homo sapiens, HL-60, 72 h, Table II, HL-60, 72 hr, XTT, read-out: Inhibitory Concentrations IC95
[17] = Homo sapiens, 72 h, Table I, 72 hr, XTT
[18] = Homo sapiens, HL-60, 72 h, read-out: Inhibitory Concentrations IC70, Table I, HL-60 (head HL-6), 72 hr, XTT
[19] = Homo sapiens, HL-60, 72 h, read-out: Inhibitory Concentrations IC70, Table II, HL-60, 72 hr, XTT
[20] = Homo sapiens, HL-60, 72 h, read-out: Inhibitory Concentrations IC95, Table I, HL-60 (head HL-6), 72 hr, XTT
[21] = Homo sapiens, HL-60, 72 h, read-out: Inhibitory Concentrations IC95, Table II, HL-60, 72 hr, XTT

In the case of `CCC1(O)C(=O)OCc2c1c(C(=O)OC)c1n(c2=O)Cc2cc3ccccc3nc2-1` (stereo not drawn) [WS-5, 14-Carbomethoxy-Camptothecin], the IC50 [1, 3] is reported as > 5000 nM, the IC50 [1, 4] is reported as > 5000 nM and the IC50 (833K cells; Homo sapiens, 72 h) is reported as 63500 nM. It also gave an IC70 (833K cells; Homo sapiens, 72 h) of 83700 nM and an IC95 (833K cells; Homo sapiens, 72 h) of 898000 ± 750000 nM.

With `CCC1C(=O)OCc2c1c(C(=O)OC)c1n(c2=O)Cc2cc3ccccc3nc2-1` (stereo not drawn) [WS-4, 14-Carbomethoxy-20-deoxycamptothecin] the “Inhibitory Concentrations IC70” value [1, 5] was 12.0, the “Inhibitory Concentrations IC95” value [1, 5] was 618.7 and the IC50 [1, 6] was 2440 nM. The IC50 [1, 7] was 2440 nM, the IC70 [1, 8] was 12000 nM and the IC95 [1, 9] was 618700 nM. For the same compound, the IC70 (833K cells; [10]) was 5800 nM, the IC95 (833K cells; [10]) was 59800 nM and the IC50 (833K cells; Table I, 72 hr, XTT) was 2260 nM.

With `CCC1C(=O)OCc2c1cc1n(c2=O)Cc2cc3ccccc3nc2-1` (stereo not drawn) [WS-2, 20-Deoxycamptothecin] the IC50 [1, 11] was 39 nM, the IC70 [1, 12] was 52 nM and the IC95 [1, 13] was 109 nM. It also gave an IC50 [1, 14] of 39 nM, an IC70 [1, 15] of 52 nM and an IC95 [1, 16] of 109 nM. For the same compound, the IC50 (833K cells; [17]) was 310 nM, the IC70 (833K cells; [10]) was 143 nM and the IC95 (833K cells; [10]) was 3170 nM.

In the case of `CCC1(O)C(=O)OC(C)c2c1cc1n(c2=O)Cc2cc3ccccc3nc2-1` (stereo not drawn) [WS-6, 17-Methylcamptothecin], the IC50 [1, 3] is reported as 266 nM, the IC50 [1, 4] is reported as 266 nM and the IC70 [1, 18] is reported as 432 nM. It also gave an IC70 [1, 19] of 432 nM, an IC95 [1, 20] of 1430 nM and an IC95 [1, 21] of 1430 nM. The IC50 (833K cells; Homo sapiens, 72 h) was 3710 nM, the IC70 (833K cells; Homo sapiens, 72 h) was 7340 nM and the IC95 (833K cells; Homo sapiens, 72 h) was 40100 nM.

With `C=C1C(=O)OCc2c1cc1n(c2=O)Cc2cc3ccccc3nc2-1` [Compound 32, 18-nor-anhydrocamptothecin] the “inhibition of topoisomerase-I activity” value (topoisomerase-I) was “potent camptothecin-like inhibition of topoisomerase-I activity” and the reaction with thiophenol [2] was “consumption of starting material”.

`CC=C1C(=O)OCc2c1cc1n(c2=O)Cc2cc3ccccc3nc2-1` [WS-8, 20-dehydrated-CPT] gave an IC50 [1, 11] of 3440 nM, an IC70 [1, 12] of 5470 nM and an IC95 [1, 13] of 17100 nM. It also gave an IC50 [1, 14] of 3440 nM, an IC70 [1, 15] of 5470 nM and an IC95 [1, 16] of 17100 nM. For the same compound, the IC50 (833K cells; [17]) was 1700 nM, the IC70 (833K cells; [10]) was 4750 nM and the IC95 (833K cells; [10]) was 50400 ± 13800 nM.

With `CC[C@@]1(O)C(=O)OCc2c1cc1n(c2=O)Cc2cc3c(CN(C)C)c(O)ccc3nc2-1` [Topotecan] the IC50 (844K cells) was 46 nM.

With `CCC1C(=O)OCc2c1c(C(=O)OC)c1n(c2=O)Cc2cc3ccccc3nc2-1` (stereo not drawn) [WS-3, 14-Carbomethoxy-20-deoxycamptothecin] the “Inhibitory Concentrations IC70” value [1, 5] was 0.318, the “Inhibitory Concentrations IC95” value [1, 5] was 1.082 and the IC50 [1, 6] was 914 nM. For the same compound, the IC50 [1, 7] was 194 nM, the IC70 [1, 8] was 318 nM and the IC95 [1, 9] was 1082 nM. The IC50 (833K cells; Table I, 72 hr, XTT) was > 50000 nM.

`CC1(O)C(=O)OCc2c1cc1n(c2=O)Cc2cc3ccccc3nc2-1` (stereo not drawn) [WS-7, 20-Methylcamptothecin] gave an IC50 [1, 3] of 62 nM, an IC50 [1, 4] of 62 nM and an IC70 [1, 18] of 90 nM. It also gave an IC70 [1, 19] of 90 nM, an IC95 [1, 20] of 229 nM and an IC95 [1, 21] of 229 nM. The IC50 (833K cells; Homo sapiens, 72 h) was 82 nM, the IC70 (833K cells; Homo sapiens, 72 h) was 290 nM and the IC95 (833K cells; Homo sapiens, 72 h) was 7160 nM.
